Earlier results, collected in patent publication US20110171166A1, “POLYMER CONJUGATES OF O[…]” (Nektar Therapeutics, priority 2008, published 2011).

What was measured:
primary adipocytes = details: white and brown respectively
[1] = tested on: isolated pancreatic islets, a β cell line
WT mice = details: long-term treatment; gold thioglucose-induced hyperphagia and high-fat diet

In the case of osteocalcin, the “amount affecting adiponectin and Pgc1α expression in white and brown adipocytes” value (primary adipocytes) is given as “nanomolar amounts”, the “amount sufficient to regulate the expression of the insulin genes and β cell proliferation markers” value [1] is given as “picomolar amounts” and the “effect on body mass and glucose metabolism” value (WT mice) is given as “significantly weaken the deleterious effect on body mass and glucose metabolism”.
